The nature of this data set: Human HepG2 cell viability assay in 384 well format. The class given is toxicity, cell-based. Also noted: dose 125 nL, time 70.5 hour; concentration not given beside the values. The conditions noted are these: HepG2 cells, read-out: Inhibition.
`CC(C)C(=O)NC1CCN(CCO)CC1`: the cytotoxicity at 70.5 h was found to be 4.41%.

On to `Cc1cc(N(C)Cc2c(C)noc2C)n2nc(C)c(C)c2n1`, for which the cytotoxicity at 70.5 h is 3.35%.

In the case of `COc1c(CNCc2ccnc(N3CCOCC3)c2)c(C)nn1C`, the cytotoxicity at 70.5 h was -3.59%.

For the molecule `CS(=O)(=O)NCC1CCCN(C(=O)c2ccco2)C1` (configuration not stated), the cytotoxicity at 70.5 h was -6.79%.

Regarding `CC(C)c1nc(CN2CCCC2c2cnn(C)c2)cs1` (configuration not stated), the cytotoxicity at 70.5 h was -2.88%.

`CCc1cc(N(C)Cc2nonc2C)nc(N2CCOCC2)n1`: the cytotoxicity at 70.5 h stood at 1.99%.

Turning to `NC(=O)c1ccc(N2CCCCC2)c(NC(=O)c2ccc(F)cc2Cl)c1`, the cytotoxicity at 70.5 h worked out at 3.11%.

As for `CC(C(=O)N1CCOCC1)N1CCc2cncnc2C1` (configuration not stated), the cytotoxicity at 70.5 h is -4.71%.

For the molecule `CCOc1cc(C)nc(N2CCN(Cc3nccn3C)CC2)n1`, the cytotoxicity at 70.5 h was -0.961%.

Turning to `O=C(CO)N1CC2(CCN(c3ccccc3)C2)C1`, the cytotoxicity at 70.5 h was -6.59%.

Turning to `COCCOc1ccc(C(=O)N[C@@H]2CNCCC[C@H]2O)cc1`, the cytotoxicity at 70.5 h was -2.53%.

Take `COc1ccnc(N2CCN(C(=O)c3csc(C)n3)CC2)n1`: the cytotoxicity at 70.5 h was -4.93%.

As to `O=C(CN1CCc2sccc2C1)Nc1nccs1`, the cytotoxicity at 70.5 h was -18.3%.

In the case of `COc1cccc(C2CCN(c3ccc4cc[nH]c4n3)C2)c1OC` (configuration not stated), the cytotoxicity at 70.5 h was 1.26%.

For the molecule `CNc1ncccc1CN1CCCCC1c1ccnc(N)n1` (configuration not stated), the cytotoxicity at 70.5 h was -3.08%.

As to `CCc1ncc2c(n1)CN(C(=O)CCCc1ccc(OC)cc1)C2`, the cytotoxicity at 70.5 h is -6.31%.

As to `CC(C)c1nnsc1CNC(=O)C1CCN(C(=O)C2CCC2)CC1`, the cytotoxicity at 70.5 h is -5.12%.

For `CCN1CCCC(C)(C(=O)NCc2nccn2Cc2ccccc2)C1` (configuration not stated), the cytotoxicity at 70.5 h was determined as 0.597%.

As for `CSCC(=O)NC1(c2cccc(Cl)c2)CC1`, the cytotoxicity at 70.5 h is -3.77%.

For the molecule `CNC(=O)COc1cccc(CNC(=O)c2c(C)noc2C)c1`, the cytotoxicity at 70.5 h was -10.6%.

As for `COCC(NC(=O)c1cccnc1)c1cccc(C(F)(F)F)c1` (configuration not stated), the cytotoxicity at 70.5 h is -5.85%.

With `CC(=O)Nc1ccc(CNc2ccn(Cc3ccccc3)n2)cc1`, the cytotoxicity at 70.5 h was -3.05%.

`COc1ccc2[nH]nc(CN3CCN(Cc4cccc(F)c4)CC3)c2c1`: the cytotoxicity at 70.5 h is 4.06%.

Turning to `CN1CCN(c2ccc(NC(=O)c3ccccn3)c(C(F)(F)F)c2)CC1`, the cytotoxicity at 70.5 h is -5.99%.

As to `CCN1CCCC(O)(c2nc(C)c(CCOc3ccccc3Cl)s2)CC1` (configuration not stated), the cytotoxicity at 70.5 h is -7.73%.

For `CN1CCC2(CC1)CN(CC1CC1)CC21CCNC1=O` (configuration not stated), the cytotoxicity at 70.5 h is -6.91%.

Turning to `COc1cc(NC(=O)NCc2ccccn2)cc(OC)c1`, the cytotoxicity at 70.5 h stood at 8.5%.

On to `NS(=O)(=O)c1cnn(CCC(=O)N(C2CCCCC2)C2CC2)c1`, for which the cytotoxicity at 70.5 h was -3.97%.

For the molecule `Cc1ccc(S(=O)(=O)NC(=O)c2cccc3c2OCCO3)c(C)c1`, the cytotoxicity at 70.5 h is -3.86%.

On to `Cc1nc(CN2CCCC(CCc3ccccc3C(F)(F)F)C2)no1` (configuration not stated), for which the cytotoxicity at 70.5 h was -8.94%.

As to `c1csc(-c2noc(CCCNC3CCc4ncnn4C3)n2)c1` (configuration not stated), the cytotoxicity at 70.5 h was -4.28%.

With `Cc1cc(C)n(C2CCCN(C(=O)Cc3ccc(C#N)cc3)C2)n1` (configuration not stated), the cytotoxicity at 70.5 h was -14.4%.

With `Cc1ccc(NC(=O)CNc2ccccc2C(N)=O)c(C)c1`, the cytotoxicity at 70.5 h turned out to be 2.06%.

As for `O=C(c1ccno1)N1CCN2C(=O)N(Cc3ccc(F)cc3)C[C@H]2C1`, the cytotoxicity at 70.5 h is -8.27%.

As to `NC(=O)c1cncc(N2CCN(Cc3cccc4nsnc34)CC2)n1`, the cytotoxicity at 70.5 h is -5.47%.

Consider `CNc1ncc2c(n1)CN(CCc1ccc(C)cc1)C2=O`, for which the cytotoxicity at 70.5 h was -3.63%.

Consider `CN1C(=O)CO[C@H]2CCN(C(=O)Cc3ccc4c(c3)CCCC4)CC[C@@H]21`, for which the cytotoxicity at 70.5 h was -4.91%.

For `CCN1CC2(CCC1=O)CCN(CCOc1ccc(F)cc1)CC2`, the cytotoxicity at 70.5 h is -13%.

As to `CN(CCCOc1ccccc1)Cc1nc2c(cnn2C)c(=O)[nH]1`, the cytotoxicity at 70.5 h was -1.06%.

For the molecule `Cc1occc1C(=O)N1CC(C(=O)N2CCOCC2)C2(CCOCC2)C1` (configuration not stated), the cytotoxicity at 70.5 h is 6.2%.

In the case of `O=C1NCCCC[C@@H]1Nc1ccc(-c2nc(C3CC3)no2)cn1`, the cytotoxicity at 70.5 h is -2.61%.

As for `COc1ccccc1OCc1cc(C(=O)N2C[C@H](O)[C@@H](N(C)C)C2)n[nH]1`, the cytotoxicity at 70.5 h is -4.57%.

For `O=C(COC1CCCC1)NCCc1noc(-c2ccccn2)n1`, the cytotoxicity at 70.5 h is -5.96%.

Consider `CCc1nc(C2CCCN(C(=O)c3ccc(Cl)cc3)C2)no1` (configuration not stated), for which the cytotoxicity at 70.5 h amounted to 5.79%.

As for `CCc1cc(=O)n(CC(=O)N2CCC(C)CC2)c(-c2ccccc2)n1`, the cytotoxicity at 70.5 h is -10.3%.

As for `CN(Cc1ccc(C#N)cc1)C(=O)c1ccnc(OC2CCC2)c1`, the cytotoxicity at 70.5 h worked out at 16.3%.

As for `CNS(=O)(=O)c1csc(C(=O)N(C)Cc2sccc2C)c1`, the cytotoxicity at 70.5 h was -6.58%.

In the case of `c1cncc(NCCNC2CCSC2)c1` (configuration not stated), the cytotoxicity at 70.5 h was 14.7%.

With `O=C1NC(c2cccnc2)=NC12CCN(CCCc1ccccc1)CC2`, the cytotoxicity at 70.5 h is -8.89%.

For the molecule `Cc1cccc(CN2C[C@@H]3CN(C(=O)c4cnoc4C)C[C@@H]3C2=O)n1`, the cytotoxicity at 70.5 h was -5.42%.

In the case of `CN(C)c1ccc(-c2noc([C@@H]3CCCN3)n2)cn1`, the cytotoxicity at 70.5 h is 6.36%.

On to `CCn1c(C)nc2cc(NC(=O)CC3CCN(S(C)(=O)=O)CC3)ccc21`, for which the cytotoxicity at 70.5 h is -18.6%.

For the molecule `CN(Cc1ccc(F)cc1)CC1(O)CCN(C(=O)c2ccsc2)C1` (configuration not stated), the cytotoxicity at 70.5 h is 9.08%.

Regarding `COc1ccc(-c2nc(CN(C)Cc3nncn3C)c(C)o2)c(C)c1C`, the cytotoxicity at 70.5 h came out at 5.19%.

`Cc1cnn(CC2CCCCN2C(=O)c2ccc(C#N)c(C)n2)c1` (configuration not stated): the cytotoxicity at 70.5 h was -0.947%.

With `CCN(C)c1ccc(C(=O)NCCCc2ccccn2)cn1`, the cytotoxicity at 70.5 h was -4.13%.

For the molecule `Cn1ncc(C(=O)O)c1C(=O)Nc1nc2ccc(Br)cc2s1`, the cytotoxicity at 70.5 h is 14.8%.

Consider `O=C(NCC1CCOC1)c1cc(-c2ccc(F)cc2)[nH]n1` (configuration not stated), for which the cytotoxicity at 70.5 h is -10.8%.

Regarding `Cc1c(C)n(Cc2ccncc2)c2nc3c(c(N)c12)CCCCC3`, the cytotoxicity at 70.5 h is 25.4%.

Take `CN(CC(N)=O)C(=O)c1cc(Cl)c(Cl)n1C`: the cytotoxicity at 70.5 h is -5.05%.

Regarding `Cc1cc(C)n(CC2CCCN2C(=O)c2cn[nH]c2C)n1` (configuration not stated), the cytotoxicity at 70.5 h is -1.06%.

As to `Cn1ccnc1SCCNC1CCN(c2ncccn2)CC1`, the cytotoxicity at 70.5 h was -1.29%.

As for `CC(=O)N1CCCC1(C(=O)N1CCCC1)c1cnccn1` (configuration not stated), the cytotoxicity at 70.5 h is 0.591%.

Consider `Cc1nc2cc(C(=O)N3C[C@@H](C(=O)O)[C@H](c4ccncc4)C3)ccc2[nH]1`, for which the cytotoxicity at 70.5 h was -3.63%.

Turning to `NC(=O)CCNC(=O)NCC1(c2ccccc2Cl)CCC1`, the cytotoxicity at 70.5 h was -2.77%.

In the case of `COc1ccc(OC)c(C(C)NS(=O)(=O)c2cn(C)nc2C)c1` (configuration not stated), the cytotoxicity at 70.5 h is -3.29%.

Consider `Cc1ccc(C(=O)NCCn2nc(-n3cncn3)ccc2=O)c(C)c1`, for which the cytotoxicity at 70.5 h amounted to 29.8%.

In the case of `O=C(CSCC1CC1)N1CCC2(CCCN(C3CCOCC3)C2=O)C1` (configuration not stated), the cytotoxicity at 70.5 h was -6.7%.

For the molecule `CCc1noc(C)c1C(=O)N1CCCC1Cn1cccn1` (configuration not stated), the cytotoxicity at 70.5 h was -3.75%.

Take `CC(C)C(Sc1cccs1)C(=O)NCc1cccnc1` (configuration not stated): the cytotoxicity at 70.5 h is -14.6%.

As for `Cc1ccc(OCC2CCCN(C(=O)CCn3ccccc3=O)C2)cc1` (configuration not stated), the cytotoxicity at 70.5 h is 0.753%.

`Cn1c(C2CC2)nc2cc(NC(=O)C3(O)CCCC3)ccc21`: the cytotoxicity at 70.5 h was -4.26%.

Values taken from ChEMBL document CHEMBL3507680, “University of Dundee, Gates Library screen for HepG2 cell viability”.
